# Test results published in publication PMC9571264 (Molecules, 2022).
# Assays:
# [1] = tested on: P53, Bax, Caspase 3, Caspase 7, PI3k, AKT, and Bcl-2 mRNA in HepG2 cells; assay: RT-PCR relative mRNA expression of apoptosis-related genes, HepG2; assay type: cell-based, human; details: HepG2, IC50 = 13.14 μM, 48 h; versus β-actin; untreated control = 1
# Lung Cancer A549 = assay: MTT cytotoxicity assay, A549; assay type: cell-based; details: Homo sapiens, 48 h, read-out: IC50 (µM) ± SEM, Lung Cancer A549
# Procedure: (§1) Cytotoxic activities of the synthesized derivatives were screened against leukemia (HL60), liver (HepG2), breast (MCF-7), and lung (A549) cancer cell lines and non-cancerous THLE2 and WISH cells at different concentrations [0.01–100 µM] for 48 h using the MTT assay (Table 1).
# (§2) Human promyelocytic leukemia ”HL-60”, human hepatocellular carcinoma “HepG2”, human breast cancer “MCF-7”, human lung cancer “A549” cell lines, and two normal cell lines, THLE-2 as normal adult liver epithelial cells and WISH as normal epithelial cells, were obtained from American Type Culture Collection “Rockville, MD, USA”.
# (§3) According to the manufacturer’s protocol, the cells were seeded in 96-well plates at a concentration of 5 × 10^4 cells per well (200 µL). Different concentrations of the tested compounds were used to test the cytotoxicity. […] A non-linear regression of curve fit was used to calculate the IC50.
# [2] = tested on: caspases 3/7 in HepG2 cells; assay: Caspase 3/7 green flow cytometry assay, HepG2; assay type: cell-based, human; details: HepG2, 48 h; untreated cells 1.32%
# From the text: Apoptosis is a form of cell death programmed by the family of cysteine protease. In response to the various cell death stimuli, a large irreversible proteolytic cascade is triggered and subsequently generated. The effector caspase activity has been evaluated to determine the apoptotic pathway initiated by the tested compounds using the “Cell Event™ Caspase 3/7 Green Detection kit”.
# (§4) (See supplementary information for the detailed methodology of flow cytometric analyses, including “FITC/Annexin-V-FITC/PI differential apoptosis/necrosis”, “DNA content-flow cytometry aided cell cycle”, and “Caspase 3/7 green flow cytometry”).
# Supplementary materials for detailed methodology
# 2.2.2.1. Flow cytometric analysis
# 2.2.2.1.1. FITC/Annexin-V-FITC/PI Differential Apoptosis/Necrosis Assessment Apoptosis and necrosis cell populations are determined using Annexin V-FITC apoptosis detection kit (Abcam Inc., Cambridge Science Park, Cambridge, UK) coupled with 2 fluorescent channels flowcytometry. […] After staining, cells are injected via ACEA Novocyte™ flowcytometer (ACEA Biosciences Inc., San Diego, CA, USA) and analyzed for FITC and PI fluorescent signals using FL1 and FL2 signal detector, respectively (λex/em 488/530 nm for FITC and λex/em 535/617 nm for PI). […]
# concentration was measured. […]
# HepG2 cancer cells = assay: DNA content-flow cytometry cell-cycle analysis, HepG2; assay type: cell-based, human; details: HepG2, IC50 = 13.14 μM, 48 h
# Procedure: as §4
# Supplementary materials for detailed methodology […]
# 2.2.2.1.2. DNA Content-Flow Cytometry Aided Cell Cycle Analysis
# After treatment with test compounds for 48 h, cells (10^5 cells) are collected by trypsinization and washed twice with ice-cold PBS (pH 7.4). Cells are re-suspended in two milliliters of 60% ice-cold ethanol and incubated at 4 °C for 1 h for fixation. Fixed cells are washed twice again with PBS (pH 7.4) and re-suspended in 1 mL of PBS containing 50 μg/mL RNAase A and 10 μg/mL propidium iodide (PI). After 20 min of incubation in dark at 37 C, cells are analyzed for DNA contents using flow cytometry analysis using FL2 (λex/em 535/617 nm) signal detector (ACEA Novocyte™ flowcytometer, ACEA Biosciences Inc., San Diego, CA, USA). For each sample, 12,000 events are acquired. Cell cycle distribution is calculated using ACEA NovoExpress™ software (ACEA Biosciences Inc., San Diego, CA, USA).
# 2.2.2.1.3. Caspase- 3/7 green flow cytometry assay
# The ability of compounds 4 and 9 to induce the enzymatic activities of caspase 3/7 in HL60 and HepG2 respectively were assayed using caspase 3/7 green flow cytometry assay method. Briefly, control and the tested compounds treated cells (2.5x10^5/mL) were rinsed with ice cold PBS, cell lysates were prepared and subsequently protein
# Liver Cancer HepG2 = assay: MTT cytotoxicity assay, HepG2; assay type: cell-based, human; details: Homo sapiens, HepG2, 48 h, read-out: IC50 (µM) ± SEM, Liver Cancer HepG2
# Procedure: as §1, §2, §3
smiles,measurement,setting,value
"Cc1c(Br)c(=O)oc2c(Br)c(OC(=O)/C=C/c3ccccc3)c(Br)cc12 [Compound 8b, (2E)-3,6,8-Tribromo-4-methyl-2-oxo-2H-chromen-7-yl Cinnamate]",AKT relative mRNA expression,[1],0.72 fold
same,Bax relative mRNA expression,[1],1.51 fold
same,Bcl-2 relative mRNA expression,[1],0.75 fold
same,P53 relative mRNA expression,[1],3.89 fold
same,PI3K relative mRNA expression,[1],0.75 fold
same,caspase 3 relative mRNA expression,[1],4.63 fold
same,caspase 7 relative mRNA expression,[1],3.63 fold
same,IC50,Lung Cancer A549,4.63 ± 0.16 µM
same,Apoptotic cells due to active caspases 3/7,[2],6.09%
same,pre-G1 cell population,HepG2 cancer cells; control 1.71%,12.56%
same,G2/M cell population,HepG2 cancer cells; control 12.34%,26.05%
same,G0/G1 cell population,HepG2 cancer cells; control 53.6%,42.53%
same,IC50,Liver Cancer HepG2,13.1 ± 0.22 µM
